According to PubChem BioAssay (NCI):
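All cell lines were grown in 96-well plates and treated with compound for 48 hours. TGI: concentration producing complete growth inhibition.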

What was measured:
Assay in all cases: DTP human tumour cell line panel, 48 h
SK-MEL-5 melanoma = tested on: SK-MEL-5 melanoma
K-562 leukemia = tested on: K-562 leukemia
SR leukemia = tested on: SR leukemia
DU-145 prostate = tested on: DU-145 prostate
MOLT-4 leukemia = tested on: MOLT-4 leukemia
SF-268 CNS = tested on: SF-268 CNS
SK-MEL-28 melanoma = tested on: SK-MEL-28 melanoma
CAKI-1 renal = tested on: CAKI-1 renal
M14 melanoma = tested on: M14 melanoma
T-47D breast = tested on: T-47D breast
PC-3 prostate = tested on: PC-3 prostate
A498 renal = tested on: A498 renal
SN12C renal = tested on: SN12C renal
OVCAR-8 ovarian = tested on: OVCAR-8 ovarian
UO-31 renal = tested on: UO-31 renal
UACC-257 melanoma = tested on: UACC-257 melanoma
SNB-75 CNS = tested on: SNB-75 CNS
HOP-92 NSCLC = tested on: HOP-92 NSCLC
RPMI-8226 leukemia = tested on: RPMI-8226 leukemia
786-0 renal = tested on: 786-0 renal
NCI/ADR-RES ovarian = tested on: NCI/ADR-RES ovarian
SF-295 CNS = tested on: SF-295 CNS
OVCAR-3 ovarian = tested on: OVCAR-3 ovarian
MDA-MB-435 = tested on: MDA-MB-435
CCRF-CEM leukemia = tested on: CCRF-CEM leukemia
SK-OV-3 ovarian = tested on: SK-OV-3 ovarian
IGROV1 ovarian = tested on: IGROV1 ovarian
MCF7 breast = tested on: MCF7 breast
TK-10 renal = tested on: TK-10 renal
KM12 colon = tested on: KM12 colon
HCT-116 colon = tested on: HCT-116 colon
MALME-3M melanoma = tested on: MALME-3M melanoma
BT-549 breast = tested on: BT-549 breast
LOX IMVI melanoma = tested on: LOX IMVI melanoma
HOP-62 NSCLC = tested on: HOP-62 NSCLC
COLO 205 colon = tested on: COLO 205 colon
NCI-H226 lung = tested on: NCI-H226 lung
HS 578T breast = tested on: HS 578T breast
OVCAR-4 ovarian = tested on: OVCAR-4 ovarian
SW-620 colon = tested on: SW-620 colon
HL-60(TB) leukemia = tested on: HL-60(TB) leukemia
SNB-19 CNS = tested on: SNB-19 CNS
MDA-MB-231 breast = tested on: MDA-MB-231 breast
HT29 colon = tested on: HT29 colon
ACHN renal = tested on: ACHN renal
UACC-62 melanoma = tested on: UACC-62 melanoma
NCI-H23 lung = tested on: NCI-H23 lung
HCT-15 colon = tested on: HCT-15 colon
A549 NSCLC = tested on: A549 NSCLC
U251 CNS = tested on: U251 CNS
SK-MEL-2 melanoma = tested on: SK-MEL-2 melanoma
NCI-H460 lung = tested on: NCI-H460 lung
NCI-H522 lung = tested on: NCI-H522 lung
MDA-N = tested on: MDA-N
OVCAR-5 ovarian = tested on: OVCAR-5 ovarian
RXF 393 renal = tested on: RXF 393 renal
EKVX NSCLC = tested on: EKVX NSCLC
SF-539 CNS = tested on: SF-539 CNS

## Cc1c(C(=O)O)nc(/C=C/C(=O)O)[nH]c1=O
SK-MEL-5 melanoma
  TGI: > 100 µM
K-562 leukemia
  TGI: > 100 µM
SR leukemia
  TGI: > 100 µM
DU-145 prostate
  TGI: > 100 µM
MOLT-4 leukemia
  TGI: > 100 µM
SF-268 CNS
  TGI: > 100 µM
SK-MEL-28 melanoma
  TGI: > 100 µM
CAKI-1 renal
  TGI: > 100 µM
M14 melanoma
  TGI: > 100 µM
T-47D breast
  TGI: > 100 µM
PC-3 prostate
  TGI: > 100 µM
A498 renal
  TGI: > 100 µM
SN12C renal
  TGI: > 100 µM
OVCAR-8 ovarian
  TGI: > 100 µM
UO-31 renal
  TGI: > 100 µM
UACC-257 melanoma
  TGI: > 100 µM
SNB-75 CNS
  TGI: > 100 µM
HOP-92 NSCLC
  TGI: > 100 µM
RPMI-8226 leukemia
  TGI: > 100 µM
786-0 renal
  TGI: > 100 µM
NCI/ADR-RES ovarian
  TGI: > 100 µM
SF-295 CNS
  TGI: > 100 µM
OVCAR-3 ovarian
  TGI: > 100 µM
MDA-MB-435
  TGI: > 100 µM
CCRF-CEM leukemia
  TGI: > 100 µM
SK-OV-3 ovarian
  TGI: > 100 µM
IGROV1 ovarian
  TGI: > 100 µM
MCF7 breast
  TGI: > 100 µM
TK-10 renal
  TGI: > 100 µM
KM12 colon
  TGI: > 100 µM
HCT-116 colon
  TGI: > 100 µM
MALME-3M melanoma
  TGI: > 100 µM
BT-549 breast
  TGI: > 100 µM
LOX IMVI melanoma
  TGI: > 100 µM
HOP-62 NSCLC
  TGI: > 100 µM
COLO 205 colon
  TGI: > 100 µM
NCI-H226 lung
  TGI: > 100 µM
HS 578T breast
  TGI: > 100 µM
OVCAR-4 ovarian
  TGI: > 100 µM
SW-620 colon
  TGI: > 100 µM
HL-60(TB) leukemia
  TGI: > 100 µM
SNB-19 CNS
  TGI: > 100 µM
MDA-MB-231 breast
  TGI: > 100 µM
HT29 colon
  TGI: > 100 µM
ACHN renal
  TGI: > 100 µM
UACC-62 melanoma
  TGI: > 100 µM
NCI-H23 lung
  TGI: > 100 µM
HCT-15 colon
  TGI: > 100 µM
A549 NSCLC
  TGI: > 100 µM
U251 CNS
  TGI: > 100 µM
SK-MEL-2 melanoma
  TGI: > 100 µM
NCI-H460 lung
  TGI: > 100 µM
NCI-H522 lung
  TGI: > 100 µM
MDA-N
  TGI: > 100 µM
OVCAR-5 ovarian
  TGI: > 100 µM
RXF 393 renal
  TGI: > 100 µM
EKVX NSCLC
  TGI: > 100 µM
SF-539 CNS
  TGI: > 100 µM

## S=C(NC/C(Br)=C/Br)Nc1cccc2ccccc12
SK-MEL-5 melanoma
  TGI: 34.3 µM
K-562 leukemia
  TGI: 31 µM
SR leukemia
  TGI: > 100 µM
DU-145 prostate
  TGI: > 100 µM
MOLT-4 leukemia
  TGI: 46.8 µM
CAKI-1 renal
  TGI: > 100 µM
M14 melanoma
  TGI: 43.7 µM
T-47D breast
  TGI: > 100 µM
PC-3 prostate
  TGI: 71.7 µM
A498 renal
  TGI: 90.4 µM
SN12C renal
  TGI: 53.1 µM
OVCAR-8 ovarian
  TGI: > 100 µM
UO-31 renal
  TGI: 55.2 µM
UACC-257 melanoma
  TGI: > 100 µM
SNB-75 CNS
  TGI: > 100 µM
HOP-92 NSCLC
  TGI: 55.9 µM
RPMI-8226 leukemia
  TGI: 44.7 µM
786-0 renal
  TGI: > 100 µM
NCI/ADR-RES ovarian
  TGI: 50.9 µM
SF-295 CNS
  TGI: > 100 µM
OVCAR-3 ovarian
  TGI: 71.8 µM
MDA-MB-435
  TGI: > 100 µM
CCRF-CEM leukemia
  TGI: 66.2 µM
SK-OV-3 ovarian
  TGI: > 100 µM
IGROV1 ovarian
  TGI: > 100 µM
MCF7 breast
  TGI: 44.4 µM
TK-10 renal
  TGI: > 100 µM
HCT-116 colon
  TGI: 61.9 µM
MALME-3M melanoma
  TGI: 78.8 µM
BT-549 breast
  TGI: 84.6 µM
LOX IMVI melanoma
  TGI: > 100 µM
HOP-62 NSCLC
  TGI: 94 µM
COLO 205 colon
  TGI: 32.7 µM
NCI-H226 lung
  TGI: > 100 µM
HS 578T breast
  TGI: > 100 µM
OVCAR-4 ovarian
  TGI: > 100 µM
HL-60(TB) leukemia
  TGI: 37.3 µM
SNB-19 CNS
  TGI: > 100 µM
MDA-MB-231 breast
  TGI: 51.3 µM
HT29 colon
  TGI: > 100 µM
ACHN renal
  TGI: 86.6 µM
UACC-62 melanoma
  TGI: 67.7 µM
NCI-H23 lung
  TGI: 74.5 µM
HCT-15 colon
  TGI: > 100 µM
A549 NSCLC
  TGI: > 100 µM
U251 CNS
  TGI: > 100 µM
SK-MEL-2 melanoma
  TGI: 48.5 µM
NCI-H522 lung
  TGI: 74.6 µM
MDA-N
  TGI: 72.7 µM
OVCAR-5 ovarian
  TGI: > 100 µM
RXF 393 renal
  TGI: > 100 µM
EKVX NSCLC
  TGI: > 100 µM
SF-539 CNS
  TGI: 69.1 µM
